Data reported in US8859819B2, “Sulphurated derivatives of resorcinol, preparation of same and cosmetic uses thereof” (Pierre Fabre Dermo-Cosmetique, priority 2009, dated 2014).
≈ marks a conversion by molar mass, not a printed value.

Assays:
mushroom tyrosinase [1] = target: T1, mushroom tyrosinase (Agaricus bisporus, UniProt C7FF04); experiment: Tyrosinase inhibition test (in vitro acellular depigmenting activity); type: biochemical; details: class symbol; assay from 250 to 150 μM; overall tyrosinase activity (MPMOg), L-tyrosine substrate
T1 construct: purchased Sigma T-3824
Text: A) Determination of the Depigmenting Activity in an in vitro Acellular Test: Tyrosinase Inhibition Test)
This test is used to evaluate the depigmenting activity of the molecules tested. Tyrosinase is a limiting enzyme in melanogenesis.
It belongs to the family of oxydoreductases. It has in particular the function: monophenol monooxygenase (MPMO) and polyphenol oxidase (PPO).
It is synthesised at the level of the melanocytes. It is activated during its migration towards melanosome […]. It transforms tyrosine into DOPA then dopaquinone, which leads in fine to a polymerisation, i.e. a production of pigments (see diagram below).
The substrate: L-tyrosine, is transformed into L-DOPA by the monophenol mono oxygenase function which is transformed by the polyphenol oxidase function from tyrosinase into dopaquinone. The latter is going to self-oxidise into dopachrome which is measured by spectrophotometry at 490 nm.
More precisely, it is the overall tyrosinase activity (MPMOg) which is measured since it is the dopachrome in fine that is assayed. Thus the products tested on MPMOg (=measurement of the activity on PPO and MPMO) can cumulate the inhibition of the 2 functions, • inhibiting uniquely the MPMO function stricto sensus (transformation of tyrosine into DOPA) as a complement to the PPO test, • could inhibit PPO uniquely. General Experimental Conditions:

[2] = tested on: Staphylococcus epidermidis IP6821; experiment: Minimal inhibitory concentration (MIC), microdilution; type: cell-based
Experimental: (§1) E) Determination of the Minimal Inhibitory Concentration (MIC): This test is used to determine the antibacterial activity of a compound. Tests are carried out with 4 bacterial strains using the principle of microdilution. The MIC are determined by micromethod in liquid medium. The successive dilutions according to the products tested in the culture broth (Trypcase soy) are carried out on 96 well microplates in a final volume of 0.1 ml. The wells are seeded with 0.01 ml of bacterial suspensions titrated at around 10^7 UFC/ml. The microplates are incubated under optimal growth conditions and the MIC is read visually.

[3] = tested on: Staphylococcus aureus IP4.83 ATCC6538; experiment: as above; type: cell-based
Experimental: as §1

[4] = Antioxidant capacity by chemiluminescence (Photochem Analytik Jena); details: for μg of sample for 1 μg of Trolox: Trolox equivalent, lower = stronger antioxidant
Experimental: This test is used to determine the antioxidant capacity of the molecules. It is a method that generates free radicals by a photochemical signal. The intensity of the oxidation is 1000 times greater than that obtained under normal conditions.
The detection is carried out by chemiluminescence. It enables the evaluation of hydrosoluble and liposoluble anti-oxidant molecules or extracts.
The results are expressed respectively in equivalent quantity of vitamin C or Trolox (6-hydroxy-2,5,7,8-tetramethylchroman-2-carboxylic acid). The sensitivity is of the order of a nanomole.
The antioxidant activity studied in this test represents the capacity to trap specifically superoxide anions by chemiluminescence.
The quantified results are expressed in Trolox equivalent (standard), i.e. in “μg of product for 1 μg of Trolox”. This signifies that a quantity×of sample is needed to obtain an activity equivalent to the activity detected for 1 μg of standard. It is an anti-oxidant power relative to a reference, which makes it possible to disregard the concentration tested.
The superoxide radical: 02^0− is generated by a photochemical reaction: L+hv (UV)+O2→L*O2→L^0++O2^0−
A part of the superoxide anions is quenched by the anti-oxidants. The remaining free radicals are quantified by chemiluminescence. L^0++O2^0−→N2+AP*^2−→AP^2−+hv (luminescence)

[5] = tested on: P. acnes IP53.117 ATCC6919; experiment: Minimal inhibitory concentration (MIC), microdilution; type: cell-based, Propionibacterium acnes; details: for MIC: Cutibacterium acnes, P. acnes IP53.117 ATCC6919
Experimental: as §1

[6] = Protection of linoleic acid following a UV stress (Fenton conditions, MDA-TBA assay); parameters: % Protection Linoleic acid under UV/Fenton: concentration or dose not given beside the values; details: UV + H2O2 + iron II
Text: D) Test of Protection of Linoleic Acid Following a UV Stress. Target: Protection of Linoleic Acid Under Fenton Conditions, UV Irradiation Linoleic acid belongs to the family of polyunsaturated fatty acids (PUFA) (AGPI). Sensitive to oxidation, linoleic acid is a favoured target for oxygenated free radicals (OFR) in biological media. When biological membranes are exposed to an oxidative stress, the components the most affected are the phospholipids constituted of PUFA and cholesterol. Their degradation leads to lipidic peroxidation and generally to destructuring. Lipidic peroxidation is a self-catalysing process which generally involves OFR. Lipidic peroxidation is in part responsible for skin ageing. The method employed to evaluate lipid peroxidation is based on the coupling of thiobarbituric acid (TBA) and secondary degradation products leading to coloured compounds detectable by spectrofluorometry. The essential secondary compound of final degradation is malondialdehyde, MDA. MDA is a carcinogenic and mutagenic aldehyde, it acts on proteins and DNA. The sample to be tested is placed in contact with linoleic acid in a weight/weight ratio. The sample undergoes an MED (Minimal Erythemal Dose) irradiation under Fenton conditions, namely in the presence of H202 and iron II in a solar simulator. Following irradiation, the reaction mixture is taken up in methanol and derivatised at 90° C. with TBA. Chromogene, the MDA-TBA complex, representative of the equimolar production of MDA is assayed by fluorimetry (excitation at 525 nm, emission at 549 nm). The results are expressed in fluorescence units, as a function of a MDA-TBA control range then expressed as concentration of the MDA-TBA complex. Then, the percentage of the starting MDA/linoleic acid (LA) ratio is determined. Then the percentage of protection of linoleic acid is determined. The product assay is expressed as weight/weight ratio, in other words in weight percentage with respect to the total quantity of linoleic acid. The maximal MDA level is determined by the condition UV+H202+iron II (F). The percentage of protection of linoleic acid represents: the % ratio of MDA under maximal stress conditions untreated over the % of MDA under stress conditions treated by the product.

B16-F10 cells = experiment: Melanin assay test in B16-F10 cells; type: cell-based, murine; details: Mus musculus, B16-F10, 72 h; read-out: B16 activity results -% at X μM
Experimental: B) Melanin Assay Test in B16-F10 Cells:
This involves a test of measuring the synthesis of melanin by colorimetric assay on a murine melanoma cell line: the B16-F10 line. This test makes it possible to evaluate the depigmenting power of active ingredients.
The B16-F10 cells are cultured in 96-well plates in DMEM medium supplemented with FCS (foetal calf serum), and incubated for 24 hours at 37° C., 5% CO2. The cells are then stimulated with 0.1 μM α-MSH (to stimulate the synthesis of melanin, the stimulation observed is around 150%) and treated for 72 hours with the active ingredients to be tested. Each concentration of active ingredient is tested at least in triplicate. The total melanin followed by the intracellular melanin dissolved in the lysis buffer are then assayed by absorbance reading at 405 nm. The total proteins are assayed in the lysate and the results are expressed in mg melanin/mg proteins. The percentage of activity is calculated as follows: […]
A negative value indicates an inhibition, whereas a positive value indicates an induction of the synthesis of melanin.
• B16-F10 cell line between P10 and P20 (murine melanocytes) (ATCC, CRL-6475)
Reagents: • DMEM without phenol red (GibcoBRL, 31053-028), 200 mM Glutamax-I Supplement (GibcoBRL, 35050-038), D-PBS (GibcoBRL, 14190-094), Foetal calf serum (Invitrogen, 10270-098), Trypsine-EDTA (GibcoBRL, 25300-054), NaOH (Sigma, S8045-500G), DMSO (Sigma, 471267-1L), Nle, Phe—Melanocyte Stimulating Hormone (Sigma, M-8764), Melanin (Sigma, M-0418), BCA-Copper (Sigma, B9643 and C2284), BSA (Sigma, P0914) C) Test for the Study of the Antioxidant Capacity by Chemiluminescence (Photochem Analytik Jena) Principle: […]

[7] = tested on: Escherichia coli IP53126 ATCC8739; experiment: Minimal inhibitory concentration (MIC), microdilution; type: cell-based
Experimental: as §1

mushroom tyrosinase [8] = target: T1, mushroom tyrosinase; experiment: Tyrosinase inhibition test (in vitro acellular depigmenting activity); type: biochemical; details: polyphenol oxidase (PPO) function; reference molecules for the test

T1 sequence (C7FF04 1-392 limits assumed): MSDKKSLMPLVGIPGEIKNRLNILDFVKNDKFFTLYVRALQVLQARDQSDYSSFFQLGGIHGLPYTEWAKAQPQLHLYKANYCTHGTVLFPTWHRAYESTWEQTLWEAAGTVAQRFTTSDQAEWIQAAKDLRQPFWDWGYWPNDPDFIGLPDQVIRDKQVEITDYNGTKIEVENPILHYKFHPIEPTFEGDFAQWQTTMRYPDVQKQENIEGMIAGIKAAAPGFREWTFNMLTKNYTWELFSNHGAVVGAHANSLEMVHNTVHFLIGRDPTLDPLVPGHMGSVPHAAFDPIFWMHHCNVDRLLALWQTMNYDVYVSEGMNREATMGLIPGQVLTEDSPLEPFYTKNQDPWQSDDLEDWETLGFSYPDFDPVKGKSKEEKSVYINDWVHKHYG

SMILES | MIC [2] | MIC [3] | MIC [5] | MIC [7] | IC50 (mushroom tyrosinase [8]) | Tyrosinase depigmenting activity result (mushroom tyrosinase [1]) | μg of sample for 1 μg of Trolox [4] | % Protection Linoleic acid under UV/Fenton [6] | inhibition at 20 µM (B16-F10 cells) | antibacterial activity against Propionibacterium acnes (in words) [5] | inhibition at 10 µM (B16-F10 cells) | Activity (antioxidant, interpretation scale) ([4]; reference products of the interpretation scale)
CCCCOc1cc(O)ccc1Sc1ccc(O)cc1O [Example 5, 4-(2-butoxy-4-hydroxyphenylthio)benzene-1,3-diol] | 3 µg/mL (≈ 9.79 µM) | 6 µg/mL (≈ 19.6 µM) | 3 µg/mL (≈ 9.79 µM) |  |  | + + + | 2.8 μg of sample for 1 μg of Trolox | 89% | 27% |  |  | 
CCCCCCCCCCOc1cc(O)ccc1Sc1ccc(O)cc1O [Example 12, 4-(2-(decyloxy)-4-hydroxyphenylthio)benzene-1,3-diol] | 0.39 µg/mL (≈ 0.999 µM) | 0.78 µg/mL (≈ 2 µM) | 0.09 µg/mL (≈ 0.23 µM) | 780 µg/mL (≈ 2000 µM) |  |  | 3.4 μg of sample for 1 μg of Trolox | 96% |  | strong antibacterial activity |  | 
O=C1O[C@H]([C@@H](O)CO)C(O)=C1O [Vitamin C, reference compound] |  |  |  |  | 20 to 40 µM |  |  |  |  |  |  | Very good (0.1 to 3.0)

The next lines start with results.

MIC [2] | MIC [3] | MIC [5] | MIC [7] | IC50 (mushroom tyrosinase [8]) | SMILES | Tyrosinase depigmenting activity result (mushroom tyrosinase [1]) | μg of sample for 1 μg of Trolox [4] | % Protection Linoleic acid under UV/Fenton [6] | inhibition at 20 µM (B16-F10 cells) | antibacterial activity against Propionibacterium acnes (in words) [5] | inhibition at 10 µM (B16-F10 cells) | Activity (antioxidant, interpretation scale) ([4]; reference products of the interpretation scale)
0.39 µg/mL (≈ 1.08 µM) | 0.78 µg/mL (≈ 2.15 µM) | 0.09 µg/mL (≈ 0.248 µM) | 390 µg/mL (≈ 1080 µM) |  | CCCCCCCCOc1cc(O)ccc1Sc1ccc(O)cc1O [Example 7, 4-(4-hydroxy-2-(octyloxy)phenylthio)benzene-1,3-diol] | + + + | 3.4 μg of sample for 1 μg of Trolox | 92% |  | strong antibacterial activity | 50% | 
156 µg/mL (≈ 329 µM) | 190 µg/mL (≈ 400 µM) | 90 µg/mL (≈ 190 µM) |  |  | CCCCCCCCCCCCCCCCOc1cc(O)ccc1Sc1ccc(O)cc1O [Example 13, 4-(2-(hexadecyloxy)-4-hydroxyphenylthio)benzene-1,3-diol] |  | 5.7 μg of sample for 1 μg of Trolox | 95% |  |  |  | 
